Measurements published in a compilation of properties of binary mixtures (doi:10.1021/acs.jced.2c00024).

Assay: xn = mol fraction of the nth substance listed
Conditions: 101 kPa

COCCn1cc[n+](C)c1.N#C[S-] + O=C1CCCO1
Conditions | electrical conductivity [S/m] | viscosity [mPa·s]
288.15 K, x1 = 0.1027 | 1.29 | 3.05
288.15 K, x1 = 0.1999 | 1.4 | 4.19
288.15 K, x1 = 0.3001 | 1.28 | 5.5
288.15 K, x1 = 0.4001 | 1.08 | 7.8
288.15 K, x1 = 0.5006 | 0.874 | 13
288.15 K, x1 = 0.6015 | 0.686 | 21.8
288.15 K, x1 = 0.8038 | 0.399 | 51
288.15 K, x1 = 0.9012 | 0.301 | 68
293.15 K, x1 = 0.1027 | 1.41 | 2.73
293.15 K, x1 = 0.1999 | 1.55 | 3.64
293.15 K, x1 = 0.3001 | 1.44 | 4.79
293.15 K, x1 = 0.4001 | 1.24 | 6.7
293.15 K, x1 = 0.5006 | 1.02 | 10.8
293.15 K, x1 = 0.6015 | 0.819 | 17.3
293.15 K, x1 = 0.7036 | 0.645 | 26.8
293.15 K, x1 = 0.9012 | 0.395 | 53
293.15 K, x1 = 1 | 0.315 | 67
298.15 K, x1 = 0.1027 | 1.54 | 2.44
298.15 K, x1 = 0.1999 | 1.72 | 3.18
298.15 K, x1 = 0.4001 | 1.42 | 5.8
298.15 K, x1 = 0.5006 | 1.19 | 9
298.15 K, x1 = 0.6015 | 0.975 | 13.9
298.15 K, x1 = 0.7036 | 0.788 | 21.1
298.15 K, x1 = 0.8038 | 0.636 | 30.3
298.15 K, x1 = 0.9012 | 0.516 | 42
303.15 K, x1 = 0.1027 | 1.68 | 2.21
303.15 K, x1 = 0.1999 | 1.89 | 2.82
303.15 K, x1 = 0.4001 | 1.61 | 5.1
303.15 K, x1 = 0.5006 | 1.38 | 7.7
303.15 K, x1 = 0.6015 | 1.16 | 11.5
303.15 K, x1 = 0.7036 | 0.958 | 17.1
303.15 K, x1 = 0.8038 | 0.785 | 24.4
303.15 K, x1 = 0.9012 | 0.642 | 33.3
303.15 K, x1 = 1 | 0.52 | 42.1
308.15 K, x1 = 0.1027 | 1.82 | 2
308.15 K, x1 = 0.1999 | 2.08 | 2.51
308.15 K, x1 = 0.3001 | 2.02 | 3.27
308.15 K, x1 = 0.4001 | 1.82 | 4.49
308.15 K, x1 = 0.5006 | 1.59 | 6.5
308.15 K, x1 = 0.7036 | 1.14 | 14.1
308.15 K, x1 = 0.8038 | 0.951 | 19.9
308.15 K, x1 = 1 | 0.653 | 34.4
313.15 K, x1 = 0.1999 | 2.27 | 2.25
313.15 K, x1 = 0.3001 | 2.21 | 2.89
313.15 K, x1 = 0.4001 | 2.02 | 3.94
313.15 K, x1 = 0.6015 | 1.56 | 8.2
313.15 K, x1 = 0.8038 | 1.12 | 16.5
313.15 K, x1 = 0.9012 | 0.95 | 22.5
313.15 K, x1 = 1 | 0.795 | 28.6
318.15 K, x1 = 0.1027 | 2.16 | 1.66
318.15 K, x1 = 0.1999 | 2.47 | 2.03
318.15 K, x1 = 0.5006 | 2.03 | 4.92
318.15 K, x1 = 0.6015 | 1.78 | 7
318.15 K, x1 = 0.7036 | 1.54 | 10.2
318.15 K, x1 = 0.8038 | 1.32 | 14
318.15 K, x1 = 0.9012 | 1.13 | 18.9
318.15 K, x1 = 1 | 0.954 | 23.7
323.15 K, x1 = 0.1027 | 2.35 | 1.53
323.15 K, x1 = 0.3001 | 2.66 | 2.34
323.15 K, x1 = 0.6015 | 2 | 6.1
323.15 K, x1 = 0.8038 | 1.51 | 11.9
323.15 K, x1 = 0.9012 | 1.31 | 16
323.15 K, x1 = 1 | 1.12 | 20
328.15 K, x1 = 0.1027 | 2.55 | 1.41
328.15 K, x1 = 0.1999 | 2.92 | 1.69
328.15 K, x1 = 0.3001 | 2.9 | 2.1
328.15 K, x1 = 0.4001 | 2.74 | 2.79
328.15 K, x1 = 0.5006 | 2.5 | 3.75
328.15 K, x1 = 0.6015 | 2.25 | 5.4
328.15 K, x1 = 0.7036 | 1.99 | 7.6
328.15 K, x1 = 0.8038 | 1.74 | 10.4
328.15 K, x1 = 1 | 1.32 | 17.2
333.15 K, x1 = 0.1999 | 3.15 | 1.56
333.15 K, x1 = 0.3001 | 3.16 | 1.9
333.15 K, x1 = 0.4001 | 2.98 | 2.5
333.15 K, x1 = 0.5006 | 2.75 | 3.35
333.15 K, x1 = 0.6015 | 2.48 | 4.81
333.15 K, x1 = 0.7036 | 2.21 | 6.8
333.15 K, x1 = 0.8038 | 1.95 | 9.2
333.15 K, x1 = 0.9012 | 1.72 | 12.1
333.15 K, x1 = 1 | 1.51 | 14.8
338.15 K, x1 = 0.1027 | 2.98 | 1.21
338.15 K, x1 = 0.1999 | 3.41 | 1.43
338.15 K, x1 = 0.3001 | 3.42 | 1.73
338.15 K, x1 = 0.4001 | 3.26 | 2.23
338.15 K, x1 = 0.5006 | 3.02 | 2.95
338.15 K, x1 = 0.8038 | 2.19 | 8.1
338.15 K, x1 = 0.9012 | 1.95 | 10.6
338.15 K, x1 = 1 | 1.72 | 12.9
343.15 K, x1 = 0.1027 | 3.21 | 1.13
343.15 K, x1 = 0.1999 | 3.66 | 1.33
343.15 K, x1 = 0.3001 | 3.71 | 1.62
343.15 K, x1 = 0.4001 | 3.54 | 2.06
343.15 K, x1 = 0.6015 | 3 | 3.86
343.15 K, x1 = 0.8038 | 2.42 | 7.3
343.15 K, x1 = 0.9012 | 2.15 | 9.5
343.15 K, x1 = 1 | 1.92 | 11.3
